Data taken from patent publication US20260174875A1 (Novo Nordisk A/S, priority 2023, published 2026).

Assay: Chemical stability assessment in formulation (UPLC-UV-MS purity loss at 37° C.)
Type: physicochemical
Conditions: 8 mM phosphate buffer pH 7.4, 1 mg/mL, 2 weeks
Experimental: The assay was performed to investigate the extend of chemical degradation in vitro over time upon incubation at 37° C. for a period of 2 weeks.
Peptide solutions were prepared by dissolving freeze-dried powder in 8 mM phosphate buffer pH 7.4 to a target of 1 mg/mL. The pH of peptide solutions was adjusted to 7.4 with 0.02 M HCl or 0.02 M NaOH. Samples were filled in Agilent HPLC vials with fixed insert. Vials were capped to prevent evaporation. The HPLC vials were incubated at 37° C. and samples were withdrawn at different time points over a period of 2 weeks, flash frozen at −80° C., and stored at −20° C. until analysis.
A flow-rate of 100 μL/min was delivered with a Binary solvent manager pump having 0.1% formic acid in water as solvent A and 0.1% formic acid in acetonitrile as solvent B. Gradient elution was carried out using 20% B from 0 to 2 min followed by 20 to 50% B from 2 to 20 min in a total run time of 30 min.

Compound | Purity loss per week at 37° C.
CC[C@H](C)[C@H](NC(=O)[C@H](CCC(=O)O)NC(=O)[C@H](CCC(=O)O)NC(=O)[C@H](CC(C)C)NC(=O)[C@H](CC(C)C)NC(=O)[C@H](CCCCNC(=O)COCCOCCNC(=O)COCCOCCNC(=O)CC[C@H](NC(=O)CCCCCCCCCCCCCCCCCCC(=O)O)C(=O)O)NC(=O)[C@H](CO)NC(=O)[C@H](Cc1ccc(O)cc1)NC(=O)[C@H](CC(=O)O)NC(=O)[C@H](CO)NC(=O)[C@@H](NC(=O)[C@H](Cc1ccccc1)NC(=O)[C@@H](NC(=O)CNC(=O)[C@H](CCC(=O)O)NC(=O)C(C)(C)NC(=O)[C@@H](N)Cc1ccc(O)cc1)[C@@H](C)O)[C@@H](C)O)C(=O)N[C@@H](C)C(=O)N[C@@H](C)C(=O)N[C@@H](CCCNC(=N)N)C(=O)N[C@@H](CCC(=O)O)C(=O)N[C@@H](Cc1ccccc1)C(=O)N[C@H](C(=O)N[C@@H](CCC(=O)O)C(=O)N[C@@H](Cc1c[nH]c2ccccc12)C(=O)N[C@@H](CC(C)C)C(=O)N[C@@H](CC(C)C)C(=O)N[C@@H](C)C(=O)NCC(=O)NCC(=O)N1CCC[C@H]1C(=O)N[C@@H](CO)C(=O)N[C@@H](CO)C(=O)NCC(=O)N[C@@H](C)C(=O)NCC(=O)N[C@@H](CCC(N)=O)C(=O)N[C@@H](C)C(=O)N1CCC[C@H]1C(=O)NCC(=O)N[C@@H](CCC(N)=O)C(=O)N[C@@H](C)C(=O)N1CCC[C@H]1C(=O)NCC(=O)N[C@@H](C)C(=O)N[C@@H](CO)C(=O)N[C@@H](Cc1c[nH]cn1)C(=O)N[C@@H](CC(C)C)C(=O)N[C@@H](CO)C(=O)N[C@H](C(=O)N[C@@H](C)C(=O)N[C@@H](CCC(N)=O)C(=O)N[C@@H](CC(C)C)C(=O)NCC(=O)N[C@@H](CCCNC(=N)N)C(=O)N[C@@H](CC(C)C)C(=O)N[C@@H](CO)C(=O)N[C@@H](C)C(=O)N[C@@H](CCC(=O)O)C(=O)N[C@@H](CC(C)C)C(=O)N[C@@H](Cc1c[nH]cn1)C(=O)N[C@@H](CCC(N)=O)C(=O)N[C@@H](CC(C)C)C(=O)N[C@@H](C)C(=O)N[C@H](C(=O)N[C@@H](CC(C)C)C(=O)N1CCC[C@H]1C(=O)N[C@@H](CCCNC(=N)N)C(=O)N[C@H](C(=O)N[C@@H](CCC(=O)O)C(=O)N[C@H](C(=O)NCC(=O)N[C@@H](CO)C(=O)NCC(=O)N[C@@H](CO)C(=O)N1CCC[C@H]1C(N)=O)[C@@H](C)O)[C@@H](C)O)[C@@H](C)O)[C@@H](C)O)[C@@H](C)CC [Compound 123] | 1.0%
CC[C@H](C)[C@H](NC(=O)[C@H](CCC(=O)O)NC(=O)[C@H](CCC(=O)O)NC(=O)[C@H](CC(C)C)NC(=O)[C@H](CC(C)C)NC(=O)[C@@H](NC(=O)[C@H](CO)NC(=O)[C@H](Cc1ccc(O)cc1)NC(=O)[C@H](CC(=O)O)NC(=O)[C@H](CO)NC(=O)[C@@H](NC(=O)[C@H](Cc1ccccc1)NC(=O)[C@@H](NC(=O)CNC(=O)[C@H](CCC(=O)O)NC(=O)C(C)(C)NC(=O)[C@@H](N)Cc1ccc(O)cc1)[C@@H](C)O)[C@@H](C)O)[C@@H](C)CC)C(=O)N[C@@H](C)C(=O)N[C@@H](C)C(=O)N[C@@H](CCCNC(=N)N)C(=O)N[C@@H](CCC(=O)O)C(=O)N[C@@H](Cc1ccccc1)C(=O)N[C@H](C(=O)N[C@@H](CCC(=O)O)C(=O)N[C@@H](Cc1c[nH]c2ccccc12)C(=O)N[C@@H](CC(C)C)C(=O)N[C@@H](CC(C)C)C(=O)N[C@@H](C)C(=O)NCC(=O)NCC(=O)N1CCC[C@H]1C(=O)N[C@@H](CO)C(=O)N[C@@H](CO)C(=O)NCC(=O)N[C@@H](CCC(=O)O)C(=O)NCC(=O)N[C@@H](CCC(N)=O)C(=O)N[C@@H](C)C(=O)N1CCC[C@H]1C(=O)NCC(=O)N[C@@H](CCC(N)=O)C(=O)N[C@@H](C)C(=O)N1CCC[C@H]1C(=O)NCC(=O)N[C@@H](C)C(=O)N[C@@H](CO)C(=O)N[C@@H](Cc1c[nH]cn1)C(=O)N[C@@H](CC(C)C)C(=O)N[C@@H](CO)C(=O)N[C@H](C(=O)N[C@@H](C)C(=O)N[C@@H](CCC(N)=O)C(=O)N[C@H](C(=O)N[C@@H](CCC(N)=O)C(=O)N[C@@H](CCCNC(=N)N)C(=O)N[C@@H](CC(C)C)C(=O)N[C@@H](CO)C(=O)N[C@@H](C)C(=O)N[C@@H](CCC(=O)O)C(=O)N[C@@H](CC(C)C)C(=O)N[C@@H](Cc1c[nH]cn1)C(=O)N[C@@H](CCCCNC(=O)COCCOCCNC(=O)COCCOCCNC(=O)CC[C@H](NC(=O)CCCCCCCCCCCCCCCCCCC(=O)O)C(=O)O)C(=O)N[C@@H](CC(C)C)C(=O)N[C@@H](C)C(=O)N[C@H](C(=O)N[C@@H](CC(C)C)C(=O)N1CCC[C@H]1C(=O)N[C@@H](CCCNC(=N)N)C(=O)N[C@H](C(=O)N[C@@H](CCC(=O)O)C(=O)N[C@H](C(=O)NCC(=O)N[C@@H](CO)C(=O)NCC(=O)N[C@@H](CO)C(=O)N1CCC[C@H]1C(N)=O)[C@@H](C)O)[C@@H](C)O)[C@@H](C)O)[C@@H](C)O)[C@@H](C)O)[C@@H](C)CC [Compound 147] | 1.0%
CC[C@H](C)[C@H](NC(=O)[C@H](CCC(=O)O)NC(=O)[C@H](CCC(=O)O)NC(=O)[C@H](CC(C)C)NC(=O)[C@H](CC(C)C)NC(=O)[C@@H](NC(=O)[C@H](CO)NC(=O)[C@H](Cc1ccc(O)cc1)NC(=O)[C@H](CC(=O)O)NC(=O)[C@H](CO)NC(=O)[C@@H](NC(=O)[C@H](Cc1ccccc1)NC(=O)[C@@H](NC(=O)CNC(=O)[C@H](CCC(=O)O)NC(=O)C(C)(C)NC(=O)[C@@H](N)Cc1ccc(O)cc1)[C@@H](C)O)[C@@H](C)O)[C@@H](C)CC)C(=O)N[C@@H](C)C(=O)N[C@@H](C)C(=O)N[C@@H](CCCNC(=N)N)C(=O)N[C@@H](CCC(=O)O)C(=O)N[C@@H](Cc1ccccc1)C(=O)N[C@H](C(=O)N[C@@H](CCC(=O)O)C(=O)N[C@@H](Cc1c[nH]c2ccccc12)C(=O)N[C@@H](CC(C)C)C(=O)N[C@@H](CC(C)C)C(=O)N[C@@H](C)C(=O)NCC(=O)NCC(=O)N1CCC[C@H]1C(=O)N[C@@H](CO)C(=O)N[C@@H](CO)C(=O)NCC(=O)N[C@@H](C)C(=O)NCC(=O)N[C@@H](CCC(N)=O)C(=O)N[C@@H](C)C(=O)N1CCC[C@H]1C(=O)NCC(=O)N[C@@H](CCC(N)=O)C(=O)N[C@@H](C)C(=O)N1CCC[C@H]1C(=O)NCC(=O)N[C@@H](C)C(=O)N[C@@H](CO)C(=O)N[C@@H](Cc1c[nH]cn1)C(=O)N[C@@H](CC(C)C)C(=O)N[C@@H](CO)C(=O)N[C@H](C(=O)N[C@@H](C)C(=O)N[C@@H](CCC(N)=O)C(=O)N[C@H](C(=O)N[C@@H](CCC(N)=O)C(=O)N[C@@H](CCCNC(=N)N)C(=O)N[C@@H](CC(C)C)C(=O)N[C@@H](CO)C(=O)N[C@@H](C)C(=O)N[C@@H](CCC(=O)O)C(=O)N[C@@H](CC(C)C)C(=O)N[C@@H](Cc1c[nH]cn1)C(=O)N[C@@H](CCCCNC(=O)COCCOCCNC(=O)COCCOCCNC(=O)CC[C@H](NC(=O)CCCCCCCCCCCCCCCCCCC(=O)O)C(=O)O)C(=O)N[C@@H](CC(C)C)C(=O)N[C@@H](C)C(=O)N[C@H](C(=O)N[C@@H](CCC(=O)O)C(=O)N1CCC[C@H]1C(=O)N[C@@H](CCCNC(=N)N)C(=O)N[C@H](C(=O)N[C@@H](CCC(=O)O)C(=O)N[C@H](C(=O)NCC(=O)N[C@@H](CO)C(=O)NCC(=O)N[C@@H](CO)C(=O)N1CCC[C@H]1C(N)=O)[C@@H](C)O)[C@@H](C)O)[C@@H](C)O)[C@@H](C)O)[C@@H](C)O)[C@@H](C)CC [Compound 162] | 1.0%
CC[C@H](C)[C@H](NC(=O)[C@H](CCC(=O)O)NC(=O)[C@H](CCC(=O)O)NC(=O)[C@H](CC(C)C)NC(=O)[C@H](CC(C)C)NC(=O)[C@H](CCCCNC(=O)COCCOCCNC(=O)COCCOCCNC(=O)CC[C@H](NC(=O)CCCCCCCCCCCCCCCCCCC(=O)O)C(=O)O)NC(=O)[C@H](CO)NC(=O)[C@H](Cc1ccc(O)cc1)NC(=O)[C@H](CC(=O)O)NC(=O)[C@H](CO)NC(=O)[C@@H](NC(=O)[C@H](Cc1ccccc1)NC(=O)[C@@H](NC(=O)CNC(=O)[C@H](CCC(=O)O)NC(=O)C(C)(C)NC(=O)[C@@H](N)Cc1ccc(O)cc1)[C@@H](C)O)[C@@H](C)O)C(=O)N[C@@H](C)C(=O)N[C@@H](C)C(=O)N[C@@H](CCCNC(=N)N)C(=O)N[C@@H](CCC(=O)O)C(=O)N[C@@H](Cc1ccccc1)C(=O)N[C@H](C(=O)N[C@@H](CCC(=O)O)C(=O)N[C@@H](Cc1c[nH]c2ccccc12)C(=O)N[C@@H](CC(C)C)C(=O)N[C@@H](CC(C)C)C(=O)N[C@@H](C)C(=O)NCC(=O)NCC(=O)N1CCC[C@H]1C(=O)N[C@@H](CO)C(=O)N[C@@H](CO)C(=O)NCC(=O)N[C@@H](C)C(=O)NCC(=O)N[C@@H](CCC(N)=O)C(=O)N[C@@H](C)C(=O)N1CCC[C@H]1C(=O)NCC(=O)N[C@@H](CCC(=O)O)C(=O)N[C@@H](C)C(=O)N1CCC[C@H]1C(=O)NCC(=O)N[C@@H](C)C(=O)N[C@@H](CO)C(=O)N[C@@H](CCC(=O)O)C(=O)N[C@@H](CC(C)C)C(=O)N[C@@H](CO)C(=O)N[C@H](C(=O)N[C@@H](C)C(=O)N[C@@H](C)C(=O)N[C@@H](CC(C)C)C(=O)NCC(=O)N[C@@H](CCCNC(=N)N)C(=O)N[C@@H](CC(C)C)C(=O)N[C@@H](CO)C(=O)N[C@@H](C)C(=O)N[C@@H](CCC(=O)O)C(=O)N[C@@H](CC(C)C)C(=O)N[C@@H](Cc1c[nH]cn1)C(=O)N[C@@H](CCC(N)=O)C(=O)N[C@@H](CC(C)C)C(=O)N[C@@H](C)C(=O)N[C@H](C(=O)N[C@@H](CC(C)C)C(=O)N1CCC[C@H]1C(=O)N[C@@H](CCCNC(=N)N)C(=O)N[C@H](C(=O)N[C@@H](CCC(=O)O)C(=O)N[C@H](C(=O)NCC(=O)N[C@@H](CO)C(=O)NCC(=O)N[C@@H](CO)C(=O)N1CCC[C@H]1C(N)=O)[C@@H](C)O)[C@@H](C)O)[C@@H](C)O)[C@@H](C)O)[C@@H](C)CC [Compound 171] | 1.0%
